The record followed here is US20050026979A1, “Methods for treating inflammation and inflammation-associated diseases with a statin and ether” (priority 2003, published 2005).

Molecules are shown by their SMILES.

The test deals with monosodium iodoacetate ("MIA")-induced knee joint arthritis. Nature of the test: Monosodium iodoacetate (MIA)-induced osteoarthritis joint pain model, acute dosing paradigm (hind paw weight distribution, incapacitance tester). The test is classed as in vivo, rat (male Wistar). The note with it: for Change in Hind Paw Weight Distribution: Day 7 post-MIA, mean, n=6. On the procedure: Monosodium Iodoacetate (“MIA”)-Induced Osteoarthritis:
Male Wistar rats (175-200 g) were housed in solid bottom isolator cages, […], with corncob bedding on a 12 hour:12 hour light:dark cycle. Animals were fed standard rat chow with water available ad libitum.
The rats were anesthetized with 5% volume/volume (“v/v”) isoflurane gas and maintained with 2% v/v isoflurane gas. The anesthetized rats were given a single intra-articular injection of 1 mg of MIA through the infrapatellar ligament of the right knee. MIA was dissolved in physiologic saline and administered in a volume of 50 μL. The contralateral control knee was injected with 50 μL of physiologic saline. Administration of isoflurane gas was discontinued, and the rats became fully conscious about 5 minutes later.
Shifts in hind paw weight distribution from the right to the left hind paws supporting the right (arthritic) and the left (contralateral control) hind leg knee joints were utilized as an index of joint pain and as a measure of compound efficacy. An incapacitance tester (Model 2KG, Linton Instrumentation, UK) was employed for determination of hind paw weight distribution. Each data point is the mean of three readings of 5 seconds duration.
The acute dosing paradigm used herein relates to osteoarthritis signs such as mobility and joint function and osteoarthritis symptoms such as joint pain. In this dosing paradigm, changes in hind paw weight distribution were determined early on Day 7 post-MIA injection, as described previously, to establish a baseline pain reading. […] Changes in hind paw weight distribution were determined 2, 4 and 6 hours post-compound administration.
MIA was injected into the right knee and saline into the left knee of all rats on Day 0. […] Two, four, and six hours later, the rats were re-assessed.
Statistically significant differences were determined by one-way ANOVA followed by Dunnett's multiple comparisons procedure. Data are expressed as mean±SEM. N=6 rats per group.

For the compound `CC(C)(CCCCOCCCCC(C)(C)C(=O)[O-])C(=O)[O-].[Ca+2]` [Compound A, 6-(5-carboxy-5-methyl-hexyloxy)-2,2-dimethyl-hexanoic acid calcium salt], the “Change in Hind Paw Weight Distribution” value (2 hr post-dose, Compound A 10 mg/kg PO) was found to be 21 g; the “Change in Hind Paw Weight Distribution” value (4 hr post-dose, Compound A 10 mg/kg PO) was determined as 15 g; the “Change in Hind Paw Weight Distribution” value (6 hr post-dose, Compound A 10 mg/kg PO) came to 21 g; the “Change in Hind Paw Weight Distribution” value (Pre-Dose (Baseline), group later given Compound A 10 mg/kg PO) was 32 g. Besides, the “Effect on shift in weight bearing potential (joint pain) versus vehicle, in words” value (Compound A 10 mg/kg PO, 2, 4 and 6 hour post-dose time points) was “altered the shift in weight bearing potential (joint pain) in arthritic rats at the 2, 4 and 6 hour post-dose time points in a statistically significant manner”.
